From the supplement of paper PMC10307832

Key:
Test in all cases: relative viability (nuclei count vs DMSO), 5 days (fraction); higher = more cells survive
[1] = compound: O=C(Nc1cccc(C(F)(F)F)c1)Nc1cc(S(=O)(=O)NC2CC2)ccc1-c1ccsc1 [AGI-6780] + CS(=O)(=O)N1CCN(Cc2cc3nc(-c4cccc5[nH]ncc45)nc(N4CCOCC4)c3s2)CC1 [Pictilisib] (partner 1 µM)
How it was run: (§1)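 After 5 days of treatment, lung cancer cells in 1536-well plates were fixed and stained in a single step (final 0.05% Triton X-100, 1% formaldehyde, 1 ug/ml Hoechst) and their nuclei counted on 4× images. Treatment had been applied by pin tool the day after seeding as one drug alone or as a fixed anchor-drug dose with five library-drug doses (not always all listed) in √10 steps. Relative viability is the nuclei count of treated wells divided by that of vehicle wells, and values are medians of duplicate plates.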

[2] = compound: O=C(Nc1cccc(C(F)(F)F)c1)Nc1cc(S(=O)(=O)NC2CC2)ccc1-c1ccsc1 [AGI-6780] + C[C@]1(O)C[C@@H](c2nc(-c3ccc4ccc(-c5ccccc5)nc4c3)c3c(N)nccn32)C1 [Linsitinib] (partner 1 µM)
How it was run: as §1

[3] = compound: O=C(Nc1cccc(C(F)(F)F)c1)Nc1cc(S(=O)(=O)NC2CC2)ccc1-c1ccsc1 [AGI-6780] + Cc1nc(NC(=O)N2CCC[C@H]2C(N)=O)sc1-c1ccnc(C(C)(C)C(F)(F)F)c1 [Alpelisib] (partner 2 µM)
How it was run: as §1

[4] = compound: O=C(Nc1cccc(C(F)(F)F)c1)Nc1cc(S(=O)(=O)NC2CC2)ccc1-c1ccsc1 [AGI-6780] + Nc1ncn([C@H]2C[C@H](O)[C@@H](CO)O2)c(=O)n1 [Decitabine] (partner 2 µM)
How it was run: as §1

Cell Line	relative viability ([1]; first compound 0.08 µM)	relative viability ([1]; first compound 0.253 µM)	relative viability ([1]; first compound 0.8 µM)	relative viability ([1]; first compound 2.53 µM)	relative viability ([1]; first compound 8 µM)	relative viability ([2]; first compound 0.08 µM)	relative viability ([2]; first compound 0.253 µM)	relative viability ([2]; first compound 0.8 µM)	relative viability ([2]; first compound 2.53 µM)	relative viability ([2]; first compound 8 µM)	relative viability ([3]; first compound 0.08 µM)	relative viability ([3]; first compound 0.253 µM)	relative viability ([3]; first compound 0.8 µM)	relative viability ([3]; first compound 2.53 µM)	relative viability ([3]; first compound 8 µM)	relative viability ([4]; first compound 0.08 µM)	relative viability ([4]; first compound 0.253 µM)	relative viability ([4]; first compound 0.8 µM)	relative viability ([4]; first compound 2.53 µM)	relative viability ([4]; first compound 8 µM)
NCI-H2009	0.731	0.884	0.911	0.737	0.867	1.18	1.21	1.12	1.25	1.15	1.21	1.12	1.17	1.13	1.25	0.396	0.365	0.428	0.322	0.382
NCI-H596	0.419	0.399	0.376	0.382	0.476	1.24	1.09	0.961	0.931	1.12	0.6	0.501	0.455	0.427	0.516	1.65	0.981	0.991	0.73	0.924
201T	0.699	0.735	0.686	0.647	0.702	1.06	1.06	1.02	0.993	1.01	1.11	1.05	0.991	0.941	1.01	0.88	0.841	0.861	0.87	0.878
NCI-H358	0.355	0.38	0.355	0.289	0.336	0.792	0.721	0.752	0.551	0.663	0.896	0.906	0.835	0.63	0.721	0.219	0.242	0.208	0.184	0.194
NCI-H1651	0.547	0.673	0.495	0.509	0.511	0.959	0.966	0.982	0.876	0.837	0.9	0.963	0.931	0.736	0.886	0.557	0.627	0.619	0.535	0.653
LU99A	0.396	0.339	0.339	0.273	0.317	0.581	0.57	0.54	0.498	0.565	0.528	0.524	0.516	0.518	0.558	0.889	1.09	0.903	0.805	0.988
LC-2-ad	0.598	0.726	0.532	0.381	0.456	0.824	0.9	0.878	0.882	0.791	0.945	0.983	0.897	0.862	0.826	0.835	0.804	0.791	0.868	0.793
NCI-H1975	0.315	0.3	0.31	0.244	0.26	1.11	0.986	0.912	1.07	0.969	0.71	0.62	0.653	0.526	0.523	0.38	0.427	0.38	0.377	0.382
NCI-H322M	0.518	0.572	0.526	0.585	0.524	0.883	0.969	1.03	0.772	0.878	0.902	0.917	0.88	0.906	0.827		0.799	0.68	0.612	0.708
NCI-H1666	0.332	0.472	0.421		0.567	0.947	0.92	0.811		0.927	1.08	0.876	1.01		0.927	0.665	0.78	0.733	0.663	0.72
EKVX	0.445	0.437	0.495	0.395	0.495	1.09	1.03	0.966	1.05	1.04	0.96	0.839	0.995	0.755	0.898	0.347	0.343	0.363	0.324	0.432
NCI-H1355	0.492	0.503	0.5	0.326	0.437	0.842	0.835	0.831	0.665	0.821	0.98	0.894	0.848	0.696	0.787	0.353	0.419	0.357	0.34	0.355
PC-3 [JPC-3]	0.767	0.78	0.819	0.687	0.691	0.995	0.952	0.904	0.926	0.953	1.02	1.02	0.976	0.983	1.02		0.797	0.868	0.802	0.775
NCI-H650	0.872	0.769	0.833	0.775	0.826	0.906	0.867	0.992	0.883	0.895	1.15	0.956	1.15	0.855	1.26	0.288	0.296	0.377	0.33	0.296
UMC-11	0.822	0.837	1.08		0.887	0.868	0.968	1.08		0.987	0.938	0.866	1.07		0.947	0.394	0.335	0.7		0.678
NCI-H460	0.325	0.338	0.382	0.242	0.374	0.796	0.788	0.936	0.741	0.72	0.536	0.458	0.514	0.327	0.568	0.547	0.453	0.552	0.446	0.512
NCI-H727	0.516	0.545	0.38	0.227	0.276	0.285	0.331	0.325	0.235	0.285	0.679	0.588	0.742	0.491	0.548	0.939	0.95	0.857	0.951	0.897
SK-MES-1	0.365	0.367	0.338	0.273	0.344	1.08	1.06	0.92	0.984	1.09	0.877	0.926	0.898	0.894	0.789	0.364	0.382	0.462	0.294	0.377
NCI-H1915	1.02	1.04	0.976	0.855	1.03	1.1	1.04	1.08	1.06	1.08	1.02	0.963	1.04	0.992	1.04	0.276	0.267	0.283	0.255	0.26
NCI-H1437	0.438	0.545	0.432	0.283	0.43	1.11	1.01	1.07	1.03	0.983	1.07	0.888	1.04	0.882	0.885	0.572	0.587	0.594	0.583	0.576
A549	0.583	0.463	0.604	0.459	0.463	0.585	0.594	0.701	0.452	0.545	0.797	0.662	0.76	0.593	0.747	0.329	0.211	0.275	0.292	0.322
NCI-H2405	0.411	0.467	0.262		0.53	0.931	0.933	0.687		0.845	0.895	0.824	0.506		0.767		0.781	0.662	0.626	0.66
LOU-NH91	0.524	0.529	0.554	0.505	0.525	0.99	0.921	0.857	0.901	0.93	0.743	0.699	0.685	0.646	0.721	0.834	0.811	0.803	0.826	0.802
EPLC-272H	0.39	0.33	0.257	0.344	0.318	1.28	1.43	1.21	1.03	1.11	0.88	0.972	0.927	0.785	0.864	0.405	0.348	0.359	0.372	0.374
NCI-H1993	0.0371	0.802	0.854	0.661	0.82	0.808	0.801	0.765	0.703	0.682	0.788	0.675	0.736	0.653	0.693	0.593	0.57	0.595		0.688
BEN	0.527	0.629	0.586		0.521	0.894	0.845	1.07		0.971	1.04	0.966	1.36		0.914	0.662	0.757	0.722		0.836
NCI-H1734	0.528	0.479	0.419		0.447	1.01	0.975	0.728		0.945	0.752	0.705	0.671		0.733	0.506	0.566	0.528	0.372	0.48
